# Test results reported in US20250295777A1, “HOMEOPATHIC PHARMACEUTICAL COMPOSITION FOR TREATING UPPER AND LOWER RESPIRATORY TRACT DISEASES” (priority 2022, published 2025).
# Structures can show the parent of a compound that is named as a salt. Where two headings read alike, the source gives them in different places.
# Columns and labels:
# [1] = test system: upper respiratory tract ciliated epithelium; assay: lifespan of the ciliated epithelium cilia / cell survival time in vitro (test sample vs isotonic NaCl control); assay type: cell-based, human (patients)
# From the text: (§1) To determine the efficiency of mucociliary clearance, the authors of the present invention measured the frequency (Frequency) and period (Time) of the upper respiratory tract ciliated epithelium cilia beating using methods for determining these parameters that are well known to persons skilled in the art and have been repeatedly described in the prior art. The authors of the invention took into account that sufficient functioning of the ciliated epithelium cilia is the most important parameter of the effectiveness of mucociliary clearance (Duchateau G S M J E, Graamans K., Zuidema J., Merkus F W H M.—Laryngoscope 1985; 95:854-859), and, therefore, they measured the percentage of ciliated epithelium cells with motile cilia (Movement). Non-limiting (illustrative) examples of methods for determining the parameters of the upper respiratory tract ciliated epithelium cilia beating are given in V. V. Shabalin et al., Biophysical Methods for Studying Mucociliary Transport of the Normal and Pathological Upper and Lower Respiratory Tract.—See in Problems of Therapeutic and Surgical Pulmonology, collection of conference materials, Saint Petersburg, 1997, pp. 44-45.
# (§2) The effect of the composition of the invention on the performance of the ciliated epithelium cilia and the lifespan of the ciliated epithelium was studied in comparison with separate components (Apis mellifica, Eupharsia officinalis, Allium cepa, Tatrarus stibiatus, Hepar sulphur, and Arnica montana separately), with the composition according to patent RU 2748548 and with an isotonic NaCl solution (0.9% solution).
# (§3) The study included patients with acute and chronic rhinosinusitis, as well as patients without a history of otolaryngological disorders.
# (§4) It is well known to persons skilled in the art that the optimal medium for the ciliated epithelium functioning is a saline (0.9% NaCl solution) and that this medium allows the ciliated epithelium cells to move synchronously and live the longest; therefore, ciliated epithelium treated with a saline was used as a control.
# (§5) The results include the following parameters: • Frequency 1, Hz—the beating frequency of the ciliated epithelium cilia in the test sample, • Frequency 2, Hz—the beating frequency of the ciliated epithelium cilia in the control (isotonic NaCl solution), • Time 1, min—lifespan of the ciliated epithelium cilia in the test sample, • Time 2, min—lifespan of the ciliated epithelium cilia in the control.
# [2] = test system: upper respiratory tract ciliated epithelium cilia; assay: beating frequency of the ciliated epithelium cilia (in vitro, test sample vs isotonic NaCl control); assay type: cell-based, human (patients)
# From the text: as §1, §2, §3, §4, §5
# [3] = test system: ciliated epithelium (upper respiratory tract epithelium cilia); details: cited from earlier work
# [4] = average values over 5 patients / dilutions D3-C30
# [5] = dilution C3, single patient sample
# [6] = dilution C6, single patient sample
# [7] = dilution C30, single patient sample
# [8] = dilution D3, single patient sample
# [9] = dilution D6, single patient sample
compound,measurement,setting,value
"O.O.O.O=C([O-])[C@H]([O-])[C@@H]([O-])C(=O)[O-].O=C([O-])[C@H]([O-])[C@@H]([O-])C(=O)[O-].[K+].[K+].[Sb+3].[Sb+3] [Tartarus stibiatus, tartrate of antimony and potassium]","Time 1, min (lifespan of the ciliated epithelium cilia in the test sample)",[1]; [4],24.6 min
same,"Time 1, min (lifespan of the ciliated epithelium cilia in the test sample)",[1]; [5],28 min
same,"Time 1, min (lifespan of the ciliated epithelium cilia in the test sample)",[1]; [6],20 min
same,"Time 1, min (lifespan of the ciliated epithelium cilia in the test sample)",[1]; [7],28 min
same,"Time 1, min (lifespan of the ciliated epithelium cilia in the test sample)",[1]; [8],27 min
same,"Time 1, min (lifespan of the ciliated epithelium cilia in the test sample)",[1]; [9],20 min
same,"Frequency 1, Hz (beating frequency of the ciliated epithelium cilia in the test sample)",[2]; [4],5.2134 Hz
same,"Frequency 1, Hz (beating frequency of the ciliated epithelium cilia in the test sample)",[2]; [5],6.503 Hz
same,"Frequency 1, Hz (beating frequency of the ciliated epithelium cilia in the test sample)",[2]; [6],5.283 Hz
same,"Frequency 1, Hz (beating frequency of the ciliated epithelium cilia in the test sample)",[2]; [7],4.092 Hz
same,"Frequency 1, Hz (beating frequency of the ciliated epithelium cilia in the test sample)",[2]; [8],5.177 Hz
same,"Frequency 1, Hz (beating frequency of the ciliated epithelium cilia in the test sample)",[2]; [9],5.012 Hz
CC(C)(O)C(Cl)(Cl)Cl [chlorbutol],ciliary beat frequency (CBF) reduced by,[3],100%
C[C@@H]1CN([C@H]2CC[C@](C#N)(c3ccc(F)cc3)CC2)CC[C@]1(C(=O)O)c1ccccc1 [levocabastine],ciliary beat frequency (CBF) reduced by,[3],13%
C[CH2][Hg][S]c1ccccc1C(=O)[O-].[Na+] [thiomersal],ciliary beat frequency (CBF) reduced by,[3],100%
Cc1cc(C(C)(C)C)cc(C)c1CC1=NCCN1 [xylometazoline hydrochloride],ciliary beat frequency (CBF) reduced by,[3]; 0.1% solution,69%
neomycin,ciliary beat frequency (CBF) reduced by,[3],82%
